Patent publication US8835415B2, “Standardized composition, method of manufacture and use in the resolution of RNA virus infection” (priority 2009, dated 2014)

Test system: H1N1 virus, Resistant strain (6706)
Assay: microbe, parasite or virus in culture
Type: cell-based
Conditions: Influenza A virus, H1N1, MDCK

`CCOC(=O)C1=C[C@@H](OC(CC)CC)[C@H](NC(C)=O)[C@@H](N)C1` [Tamiflu, Oseltamivir] showed an EC50 of over 5 µM.
